In patent US7473790B2 (Pfizer Inc., priority 2003, dated 2009):

Biological target: T1, HCV polymerase (Hepatitis C virus genotype 1b, UniProt P26663)
T1 construct: 2.5 pmoles (0.15 μg) HCV polymerase protein in a final volume of 75 μL
Assay: HCV polymerase primer/template-directed transcription assay (32P-GTP incorporation, filter binding)
Format: biochemical
Settings: for IC50: recombinant HCV polymerase, 30 minutes at 30° C., concentration giving 50% inhibition of polymerase-directed transcription, read-out: IC50
Method in brief: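 IC50s come from triplicate cpm, refit with an enzyme-concentration (30 nM) correction when under 200 nM. Reactions ran 30 min at 30° C in Tris pH 7.2 with MgCl2, 1 μM GTP spiked with α-32P-GTP, biotin-dG12 primer and poly(rC)300 template, with 1% DMSO. Incorporated label was collected on DE filtermats and counted.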

T1 sequence (P26663 2420-3010): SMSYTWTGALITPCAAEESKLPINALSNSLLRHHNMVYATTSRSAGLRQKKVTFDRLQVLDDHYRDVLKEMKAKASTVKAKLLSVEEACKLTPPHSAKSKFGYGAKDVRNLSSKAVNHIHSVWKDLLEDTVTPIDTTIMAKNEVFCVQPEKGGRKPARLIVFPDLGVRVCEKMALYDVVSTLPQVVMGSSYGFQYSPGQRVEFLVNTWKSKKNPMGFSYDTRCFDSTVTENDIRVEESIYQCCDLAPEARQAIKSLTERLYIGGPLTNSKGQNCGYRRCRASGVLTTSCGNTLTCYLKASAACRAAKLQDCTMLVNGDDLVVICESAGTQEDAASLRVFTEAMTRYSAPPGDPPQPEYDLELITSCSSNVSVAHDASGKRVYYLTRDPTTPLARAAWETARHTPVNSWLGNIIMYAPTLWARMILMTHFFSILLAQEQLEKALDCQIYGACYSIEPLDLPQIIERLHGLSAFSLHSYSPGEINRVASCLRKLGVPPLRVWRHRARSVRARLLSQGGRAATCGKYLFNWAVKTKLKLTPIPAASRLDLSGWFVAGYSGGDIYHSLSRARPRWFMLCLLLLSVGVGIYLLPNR

Structure (SMILES)	IC50	inhibition at 20 µM (@ 20 uM compound, given where IC50 was impractical to calculate, read-out: percent inhibition)
COc1ccc(CCC2(C3CCCC3)CC(O)=C(Sc3ncc[nH]3)C(=O)O2)cc1Cl (stereo not drawn) [C(103), 6-[2-(3-chloro-4-methoxyphenyl)ethyl]-6-cyclopentyl-4-hydroxy-3-(1H-imidazol-2-ylthio)-5,6-dihydro-2H-pyran-2-one]	240 nM	
N#CC1(c2ccc(CCC3(C4CCCC4)CC(O)=C(Cc4nc5ncccn5n4)C(=O)O3)cc2F)CCC1 (stereo not drawn) [A(238), 1-{4-[2-(2-Cyclopentyl-4-hydroxy-6-oxo-5-[1,2,4]triazolo[1,5-a]pyrimidin-2-ylmethyl-3,6-dihydro-2H-pyran-2-yl)-ethyl]-2-fluoro-phenyl}-cyclobutanecarbonitrile]	10 nM	
COc1ccc(CCC2(C3CCCC3)CC(O)=C(Sc3nc4cc(C(F)(F)F)cc(Cl)c4[nH]3)C(=O)O2)cc1Cl (stereo not drawn) [C(62), 6-[2-(3-chloro-4-methoxyphenyl)ethyl]-3-{[7-chloro-5-(trifluoromethyl)-1H-benzimidazol-2-yl]thio}-6-cyclopentyl-4-hydroxy-5,6-dihydro-2H-pyran-2-one]	500 nM	
CCc1cccc(CCC2(C3CCCC3)CC(O)=C(Cc3nc4nc(C)cc(C)n4n3)C(=O)O2)c1 (stereo not drawn) [B(12), 6-Cyclopentyl-3-(5,7-dimethyl-[1,2,4]triazolo[1,5]pyrimidin-2-ylmethyl)-6-[2-(3-ethyl-phenyl)-ethyl]-4-hydroxy-5,6-dihydro-pyran-2-one]	26 nM	
O=C1OC(CCC#Cc2cccc(O)c2)(C2CCCC2)CC(O)=C1Sc1nccs1 (stereo not drawn) [F(7), 6-Cyclopentyl-4-hydroxy-6-[4-(3-hydroxy-phenyl)-but-3-ynyl]-3-(thiazol-2-ylsulfanyl)-5,6-dihydro-pyran-2-one]	7500 nM	
CCNC(=O)C(C)(C)c1ccc(CCC2(C3CCCC3)CC(O)=C(Cc3nc4ncc(C)cn4n3)C(=O)O2)cc1F (stereo not drawn) [A(268), 2-(4-{2-[2-Cyclopentyl-4-hydroxy-5-(6-methyl-[1,2,4]triazolo[1,5-a]pyrimidin-2-ylmethyl)-6-oxo-3,6-dihydro-2H-pyran-2-yl]-ethyl}-2-fluoro-phenyl)-N-ethyl-isobutyramide]	680 nM	
CCc1cc(CCC2(C3CCCC3)CC(O)=C(Cc3nc4nc(C)cc(C)n4n3)C(=O)O2)cc(Cl)c1OC (stereo not drawn) [B(97), 6-[2-(3-Chloro-5-ethyl-4-methoxy-phenyl)-ethyl]-6-cyclopentyl-3-(5,7-dimethyl-[1,2,4]triazolo[1,5-a]pyrimidin-2-ylmethyl)-4-hydroxy-5,6-dihydro-pyran-2-one]	9 nM	
Cc1cc(C)n2nc(CC3=C(O)CC(CCc4ccc5c(c4)OC(F)(F)C(F)(F)O5)(C4CCCC4)OC3=O)nc2n1 (stereo not drawn) [B(40), 6-Cyclopentyl-3-(5,7-dimethyl-[1,2,4]triazolo[1,5-a]pyrimidin-2-ylmethyl)-4-hydroxy-6-[2-(2,2,3,3-tetrafluoro-2,3-dihydro-benzo[1,4]dioxin-6-yl)-ethyl]-5,6-dihydro-pyran-2-one]	14 nM	
COc1ccc(CCC2(C3CCCC3)CC(O)=C(Sc3nnc(-c4ccncc4)o3)C(=O)O2)cc1Cl (stereo not drawn) [C(51), 6-[2-(3-chloro-4-methoxyphenyl)ethyl]-6-cyclopentyl-4-hydroxy-3-[(5-pyridin-4-yl-1,3,4-oxadiazol-2-yl)thio]-5,6-dihydro-2H-pyran-2-one]	256 nM	
COc1ccc(CCC2(C3CCCC3)CC(=O)C(Cc3nc4ccccc4n3C)C(=O)O2)cc1Cl (stereo not drawn) [B(84), 6-[2-(3-chloro-4-methoxyphenyl)ethyl]-6-cyclopentyl-3-[(1-methyl-1H-benzimidazol-2-yl)methyl]dihydro-2H-pyran-2,4(3H)-dione]	110 nM	
CC(C)(C#N)c1ccc(CCC2(C3CCCC3)CC(=O)C(Cc3nc4ncccn4n3)C(=O)O2)cc1F (racemic) [A(104), 2-{4-[2-(2-Cyclopentyl-4,6-dioxo-5-[1,2,4]triazolo[1,5-a]pyrimidin-2-ylmethyl-tetrahydro-pyran-2-yl)-ethyl]-2-fluoro-phenyl}-2-methyl-propionitrile]	8 nM	
CCc1cc(CCC2(C3CCCC3)CC(O)=C(Cc3nc4nc(C)cc(C)n4n3)C(=O)O2)cc(Cl)c1O (stereo not drawn) [B(100), 6-[2-(3-Chloro-5-ethyl-4-hydroxy-phenyl)-ethyl]-6-cyclopentyl-3-(5,7-dimethyl-[1,2,4]triazolo[1,5-a]pyrimidin-2-ylmethyl)-4-hydroxy-5,6-dihydro-pyran-2-one]	3 nM	
COc1ccc(CCC2(C3CCCC3)CC(O)=C(Sc3ncc4[nH]cnc4n3)C(=O)O2)cc1Cl (stereo not drawn) [C(67), 6-[2-(3-chloro-4-methoxyphenyl)ethyl]-6-cyclopentyl-4-hydroxy-3-(7H-purin-2-ylthio)-5,6-dihydro-2H-pyran-2-one]	50 nM	
COc1ccc(CCC2(C3CCCC3)CC(OCc3cccnc3)=CC(=O)O2)cc1Cl (stereo not drawn) [G(1), 6-[2-(3-chloro-4-methoxyphenyl)ethyl]-6-cyclopentyl-4-(pyridin-3-ylmethoxy)-5,6-dihydro-2H-pyran-2-one]		16%
COc1ccc(CCC2(C3CCCC3)CC(O)=C(Cc3nc4cc(Cl)ccc4n3C)C(=O)O2)cc1Cl (stereo not drawn) [B(43), 6-[2-(3-chloro-4-methoxyphenyl)ethyl]-3-[(5-chloro-1-methyl-1H-benzimidazol-2-yl)methyl]-6-cyclopentyl-4-hydroxy-5,6-dihydro-2H-pyran-2-one]	360 nM	
O=C1CC(=O)OC(CCc2ccc3ccccc3c2)(C2CCCC2)C1 (stereo not drawn) [A(47), 6-Cyclopentyl-6-(2-naphthalen-2-yl-ethyl)-dihydro-pyran-2,4-dione]	7000 nM	
CCNC(=O)c1ccc(CCC2(C3CCCC3)CC(=O)CC(=O)O2)cc1F (stereo not drawn) [A(17), 4-[2-(2-Cyclopentyl-4,6-dioxo-tetrahydro-pyran-2-yl)-ethyl]-N-ethyl-2-fluoro-benzamide]	23000 nM	
COC1=CC(=O)OC(CCc2ccc(OC)c(Cl)c2)(C2CCCC2)C1 (stereo not drawn) [G(3), 6-[2-(3-Chloro-4-methoxy-phenyl)-ethyl]-6-cyclopentyl-4-methoxy-5,6-dihydro-pyran-2-one]	29000 nM	
COc1ccc(CCC2(C3CCCC3)CC(O)=C(Sc3nc4ccccc4n3C)C(=O)O2)cc1Cl (stereo not drawn) [C(41), 6-[2-(3-chloro-4-methoxyphenyl)ethyl]-6-cyclopentyl-4-hydroxy-3-[(1-methyl-1H-benzimidazol-2-yl)thio]-5,6-dihydro-2H-pyran-2-one]	170 nM	
CC(=O)N[C@H](C)c1ccc(CCC2(C3CCCC3)CC(=O)CC(=O)O2)cc1 (stereo partly drawn) [A(38), N-(1-{4-[2-(2-Cyclopentyl-4,6-dioxo-tetrahydro-pyran-2-yl)-ethyl]-phenyl}-ethyl)-acetamide]	12000 nM	
Cc1cc(C)n2nc(CC3=C(O)CC(CCc4ccc(C5(C#N)CCC5)c(F)c4)(C4CCCC4)OC3=O)nc2n1 (stereo not drawn) [A(236), 1-(4-{2-[2-Cyclopentyl-5-(5,7-dimethyl-[1,2,4]triazolo[1,5-a]pyrimidin-2-ylmethyl)-4-hydroxy-6-oxo-3,6-dihydro-2H-pyran-2-yl]-ethyl}-2-fluoro-phenyl)-cyclobutanecarbonitrile]	3 nM	
CCOc1ccc2[nH]c(SC3=C(O)CC(CCc4ccc(OC)c(Cl)c4)(C4CCCC4)OC3=O)nc2c1 (stereo not drawn) [C(59), 6-[2-(3-chloro-4-methoxyphenyl)ethyl]-6-cyclopentyl-3-[(5-ethoxy-1H-benzimidazol-2-yl)thio]-4-hydroxy-5,6-dihydro-2H-pyran-2-one]	200 nM	
Cc1cc(C)n2nc(CC3=C(O)CC(CCc4ccc(OCC5CC5)c(F)c4)(C4CCCC4)OC3=O)nc2n1 (stereo not drawn) [B(33), 6-Cyclopentyl-6-[2-(4-cyclopropylmethoxy-3-fluoro-phenyl)-ethyl]-3-(5,7-dimethyl-[1,2,4]triazolo[1,5-a]pyrimidin-2-ylmethyl)-4-hydroxy-5,6-dihydro-pyran-2-one]	136 nM	
N#CC1(c2ccc(CCC3(C4CCCC4)CC(=O)CC(=O)O3)cc2F)CCC1 (stereo not drawn) [A(92), 1-{4-[2-(2-Cyclopentyl-4,6-dioxo-tetrahydro-pyran-2-yl)-ethyl]-2-fluoro-phenyl}-cyclobutanecarbonitrile]	1000 nM	
Cc1cc(C)n2nc(CC3=C(O)CC(CCc4ccc(O)c(CO)c4)(C4CCCC4)OC3=O)nc2n1 (stereo not drawn) [A(193), 6-Cyclopentyl-3-(5,7-dimethyl-[1,2,4]triazolo[1,5-a]pyrimidin-2-ylmethyl)-4-hydroxy-6-[2-(4-hydroxy-3-hydroxymethyl-phenyl)-ethyl]-5,6-dihydro-pyran-2-one]	98 nM	
COc1ccc(CCC2(C3CCCC3)CC(O)=C(Sc3nc4cc(F)ccc4[nH]3)C(=O)O2)cc1Cl (stereo not drawn) [C(52), 6-[2-(3-chloro-4-methoxyphenyl)ethyl]-6-cyclopentyl-3-[(5-fluoro-1H-benzimidazol-2-yl)thio]-4-hydroxy-5,6-dihydro-2H-pyran-2-one]	140 nM	
Cc1cc(C)n2nc(CC3=C(O)CC(CCc4ccc(O)c(C(C)(C)C)c4)(C4CCCC4)OC3=O)nc2n1 (stereo not drawn) [B(08), 6-[2-(3-tert-Butyl-4-hydroxy-phenyl)-ethyl]-6-cyclopentyl-3-(5,7-dimethyl-[1,2,4]triazolo[1,5-a]pyrimidin-2-ylmethyl)-4-hydroxy-5,6-dihydro-pyran-2-one]	13 nM	
COc1ccc(CCC2(C3CCCC3)CC(O)=C(Sc3nnc(-c4ccncc4)o3)C(=O)O2)cc1Cl (stereo not drawn) [C(104), 6-[2-(3-chloro-4-methoxyphenyl)ethyl]-6-cyclopentyl-4-hydroxy-3-[(5-pyridin-4-yl-1,3,4-oxadiazol-2-yl)thio]-5,6-dihydro-2H-pyran-2-one]	310 nM	
CCc1nc(CC2=C(O)CC(CCc3cc(CC)c(O)cc3OC)(C3CCCC3)OC2=O)c(C)[nH]1 (stereo not drawn) [A(157), 6-Cyclopentyl-6-[2-(5-ethyl-4-hydroxy-2-methoxy-phenyl)-ethyl]-3-(2-ethyl-5-methyl-1H-imidazol-4-ylmethyl)-4-hydroxy-5,6-dihydro-pyran-2-one]	65 nM	
COc1ccc(CCC2(C3CCCC3)CC(=O)C(Cc3cccnc3)C(=O)O2)cc1Cl (stereo not drawn) [B(80), 6-[2-(3-chloro-4-methoxyphenyl)ethyl]-6-cyclopentyl-3-(pyridin-3-ylmethyl)dihydro-2H-pyran-2,4(3H)-dione]	560 nM	
